Source: publication PMC9697614, “Rufinamide, a Triazole-Derived Antiepileptic Drug, Stimulates Ca^2+-Activated K^+ Currents While Inhibiting Voltage-Gated Na^+ Currents” (International Journal of Molecular Sciences, 2022)

Target: T1, large-conductance Ca2+-activated K+ channel (BKCa, KCa1.1, KCNMA1, Slo1) (Rattus norvegicus, UniProt Q62976)
T1 construct: native channel in pituitary GH3 cells
Assay: patch clamp: inside-out single-channel recordings (RFM on cytosolic face) and whole-cell IK(Ca) concentration-response
Assay type: cell-based

T1 sequence (Q62976 whole entry): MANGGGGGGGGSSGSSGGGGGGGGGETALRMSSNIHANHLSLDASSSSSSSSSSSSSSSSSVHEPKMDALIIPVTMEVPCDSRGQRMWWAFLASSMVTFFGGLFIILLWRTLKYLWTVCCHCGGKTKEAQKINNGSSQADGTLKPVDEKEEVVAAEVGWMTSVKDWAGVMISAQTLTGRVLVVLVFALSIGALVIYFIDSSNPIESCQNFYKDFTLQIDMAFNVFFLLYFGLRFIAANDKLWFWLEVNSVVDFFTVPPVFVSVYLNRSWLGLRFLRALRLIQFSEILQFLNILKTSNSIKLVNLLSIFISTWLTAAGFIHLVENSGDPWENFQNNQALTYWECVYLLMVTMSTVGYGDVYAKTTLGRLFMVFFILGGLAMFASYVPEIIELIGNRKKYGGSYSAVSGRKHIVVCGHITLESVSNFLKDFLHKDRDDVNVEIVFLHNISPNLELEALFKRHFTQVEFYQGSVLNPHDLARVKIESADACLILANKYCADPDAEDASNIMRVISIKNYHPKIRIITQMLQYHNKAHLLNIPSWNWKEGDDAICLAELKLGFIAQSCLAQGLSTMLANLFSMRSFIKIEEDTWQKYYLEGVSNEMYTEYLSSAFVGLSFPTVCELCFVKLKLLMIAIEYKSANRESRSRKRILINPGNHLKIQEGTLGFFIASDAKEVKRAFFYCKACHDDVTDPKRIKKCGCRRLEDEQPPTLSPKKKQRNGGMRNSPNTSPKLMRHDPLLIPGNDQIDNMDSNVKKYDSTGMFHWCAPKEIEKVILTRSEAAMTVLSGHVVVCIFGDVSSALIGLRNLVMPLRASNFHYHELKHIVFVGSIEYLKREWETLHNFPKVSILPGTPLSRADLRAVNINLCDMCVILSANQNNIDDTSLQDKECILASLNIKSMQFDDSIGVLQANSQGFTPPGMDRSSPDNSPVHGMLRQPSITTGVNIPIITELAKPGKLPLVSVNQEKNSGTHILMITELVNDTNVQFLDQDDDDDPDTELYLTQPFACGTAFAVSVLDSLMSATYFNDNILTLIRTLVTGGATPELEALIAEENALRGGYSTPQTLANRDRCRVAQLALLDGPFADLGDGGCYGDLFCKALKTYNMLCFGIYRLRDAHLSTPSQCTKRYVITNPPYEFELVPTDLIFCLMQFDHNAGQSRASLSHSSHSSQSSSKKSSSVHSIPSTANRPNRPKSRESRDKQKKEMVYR

NC(=O)c1cn(Cc2c(F)cccc2F)nn1 [RFM, 1-((2,6-difluorophenyl)methyl)-1H-1,2,3-triazole-4carboxamide]
EC50: 3.9 µM
